Source: patent US3989598A (priority 1962, dated 1976)
Counter-ions that a name gives are not always drawn.

Experiment: solubility
Format: physicochemical
Conditions: listed as hydrochloride

SMILES: COc1cccc2c1C(=O)c1c(O)c3c(c(O)c1C2=O)C[C@@](O)(C(C)=O)C[C@@H]3O[C@H]1C[C@H](N)[C@H](O)[C@H](C)O1 [13057 RP daunorubicin hydrochloride]
- solubility in chloroform (chloroform): slightly soluble
- solubility in water (water): soluble
